According to patent US20080081284A1, “OPTICAL INFORMATION RECORDING MEDIUM” (FUJIFILM Corporation, priority 2006, published 2008):

Experiment: Evaluation of light fastness of dye film
Assay type: physicochemical
Conditions: residual dye ratio at absorption λmax 48 hours after Xe light irradiation; dye film on glass plate
Description: Dye-containing coating liquids equal to those of Examples 1 to 3, and Comparative Examples 1 to 4 were prepared, and each coating liquid was applied to a 1.1-mm-thick glass plate by a spin coating method under conditions of 23° C. and 50% RH while changing the rotation rate within a range of 500 to 1,000 rpm. The glass plate with the dye film was stored for 24 hours under conditions of 23° C. and 50% RH, and then subjected to a light fastness test using a merry-go-round-type light fastness tester (Cell Tester Model III manufactured by Eagle Engineering, equipped with WG320 Filter manufactured by Schott). The absorption spectrum of the dye film was measured using UV-1600PC manufactured by SHIMADZU immediately before the light fastness test and 48 hours after the light fastness test, and the change of the absorbancy at the maximum absorption wavelength was evaluated.

SMILES | Light fastness of dye film
Cc1nn2nc(C(C)(C)C)c(/N=N/c3c(C#N)cnn3-c3cc(C(=O)O)cc(C(=O)O)c3)c2n1C [Compound (A-7)] | Excellent (Evaluated as “Excellent” when the residual dye ratio was 85% or more at the absorption λmax 48 hours after the irradiation with an Xe light)
Cn1nc(C(C)(C)C)c(N=Nc2c(C#N)cnn2-c2cc(C(=O)O)cc(C(=O)O)c2)c1N [Compound (A-1)] | Good (evaluated as “Good” when the ratio was 70% or more and less than 85%)
Cc1n[nH]c2c(/N=N/c3c(C#N)c(C(C)(C)C)nn3C)c(C(C)(C)C)nn12 [Compound (D)] | Fair (evaluated as “Fair” when the ratio was 60% or more and less than 70%)
CCCCC(CC)COC(=O)Nc1ccc(-c2nn3nc(C(C)(C)C)c(/N=N/c4c(C#N)cnn4-c4cc(C(=O)O)cc(C(=O)O)c4)c3[nH]2)cc1 (stereo not shown) [Compound (C)] | Fair (evaluated as “Fair” when the ratio was 60% or more and less than 70%)
